From the supplement of paper PMC10627819

What was measured:
S. aureus DSM 20231 [1] = assay: fitness (endpoint OD595 vs no drug) (fraction); higher = more growth
Method in brief: (§1)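 With the first reading as background, OD595 was measured every 30 min for 14 h in 384-well plates kept at 37 °C and inoculated at OD595 0.01. TSB, LB Lennox or CY was the medium. Fitness is the optical density at the transition into stationary phase divided by the robust mean of no-drug control wells, with a cap of 1.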

B. subtilis 168 [2] = assay: as above
Method in brief: as §1

S. aureus Newman [3] = assay: as above
Method in brief: as §1

S. pneumoniae D39V [4] = assay: as above
Method in brief: as §1

S. aureus DSM 20231 [5] = assay: Bliss interaction score (quartile over a dose matrix) (fitness difference); higher = more antagonism (negative = synergy)
Method in brief: (§2)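 The Bliss score is observed fitness minus expected fitness, where the expected value is the product of single-drug fitness values inferred from combination data. Fitness is OD595 at entry into stationary phase normalised to the plate's robust no-drug mean and capped at 1. Scores are reported as quartiles spanning technical, biological and donor/recipient replicates.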

B. subtilis 168 [6] = assay: as above
Method in brief: as §2

S. aureus Newman [7] = assay: as above
Method in brief: as §2

S. pneumoniae D39V [8] = assay: as above
Method in brief: as §2
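Throughout, for Bliss interaction score (quartile over a dose matrix): first quartile when negative (synergy) and third quartile when positive (antagonism).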
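Throughout, for fitness (endpoint OD595 vs no drug): OD595 on entry to stationary phase over no-drug wells; at most 1.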

C[C@@H]1O[C@@H]1P(=O)(O)O [Fosfomycin] + COc1c(N2C[C@@H]3CCCN[C@@H]3C2)c(F)cc2c(=O)c(C(=O)O)cn(C3CC3)c12 [Moxifloxacin]
Conditions	fitness
B. subtilis 168 [2], first compound 1.562 µg/mL, partner 0.0312 µg/mL	0.0743
B. subtilis 168 [2], first compound 1.562 µg/mL, partner 0.0625 µg/mL	0.0627
B. subtilis 168 [2], first compound 1.562 µg/mL, partner 0.125 µg/mL	0.0277
B. subtilis 168 [2], first compound 1.562 µg/mL, partner 2 µg/mL	0.0303
B. subtilis 168 [2], first compound 1.562 µg/mL, partner 4 µg/mL	0.0293
B. subtilis 168 [2], first compound 1.562 µg/mL, partner 8 µg/mL	0.0076
B. subtilis 168 [2], first compound 3.124 µg/mL, partner 0.0312 µg/mL	0.0504
B. subtilis 168 [2], first compound 3.124 µg/mL, partner 0.0625 µg/mL	0.0309
B. subtilis 168 [2], first compound 3.124 µg/mL, partner 0.125 µg/mL	0.0339
B. subtilis 168 [2], first compound 3.124 µg/mL, partner 2 µg/mL	0.033
B. subtilis 168 [2], first compound 3.124 µg/mL, partner 4 µg/mL	0.0332
B. subtilis 168 [2], first compound 3.124 µg/mL, partner 8 µg/mL	0.0176
B. subtilis 168 [2], first compound 6.248 µg/mL, partner 0.0312 µg/mL	0.0469
B. subtilis 168 [2], first compound 6.248 µg/mL, partner 0.0625 µg/mL	0.0265
B. subtilis 168 [2], first compound 6.248 µg/mL, partner 0.125 µg/mL	0.0207
B. subtilis 168 [2], first compound 6.248 µg/mL, partner 2 µg/mL	0.016
B. subtilis 168 [2], first compound 6.248 µg/mL, partner 4 µg/mL	0.0083
B. subtilis 168 [2], first compound 6.248 µg/mL, partner 8 µg/mL	0.0062
S. aureus DSM 20231 [1], first compound 0.781 µg/mL, partner 0.0075 µg/mL	0.629
S. aureus DSM 20231 [1], first compound 0.781 µg/mL, partner 0.015 µg/mL	0.609
S. aureus DSM 20231 [1], first compound 0.781 µg/mL, partner 0.03 µg/mL	0.606
S. aureus DSM 20231 [1], first compound 1.562 µg/mL, partner 0.0075 µg/mL	0.592
S. aureus DSM 20231 [1], first compound 1.562 µg/mL, partner 0.015 µg/mL	0.564
S. aureus DSM 20231 [1], first compound 1.562 µg/mL, partner 0.03 µg/mL	0.538
S. aureus DSM 20231 [1], first compound 3.124 µg/mL, partner 0.0075 µg/mL	0.493
S. aureus DSM 20231 [1], first compound 3.124 µg/mL, partner 0.015 µg/mL	0.455
S. aureus DSM 20231 [1], first compound 3.124 µg/mL, partner 0.03 µg/mL	0.299
S. aureus Newman [3], first compound 0.781 µg/mL, partner 0.0075 µg/mL	0.587
S. aureus Newman [3], first compound 0.781 µg/mL, partner 0.015 µg/mL	0.509
S. aureus Newman [3], first compound 0.781 µg/mL, partner 0.03 µg/mL	0.0675
S. aureus Newman [3], first compound 1.562 µg/mL, partner 0.0075 µg/mL	0.413
S. aureus Newman [3], first compound 1.562 µg/mL, partner 0.015 µg/mL	0.358
S. aureus Newman [3], first compound 1.562 µg/mL, partner 0.03 µg/mL	0.0359
S. aureus Newman [3], first compound 3.124 µg/mL, partner 0.0075 µg/mL	0.0916
S. aureus Newman [3], first compound 3.124 µg/mL, partner 0.015 µg/mL	0.0267
S. aureus Newman [3], first compound 3.124 µg/mL, partner 0.03 µg/mL	0.015
S. pneumoniae D39V [4], first compound 1.25 µg/mL, partner 0.005 µg/mL	0.985
S. pneumoniae D39V [4], first compound 1.25 µg/mL, partner 0.01 µg/mL	0.988
S. pneumoniae D39V [4], first compound 1.25 µg/mL, partner 0.02 µg/mL	0.924
S. pneumoniae D39V [4], first compound 1.25 µg/mL, partner 0.0312 µg/mL	0.139
S. pneumoniae D39V [4], first compound 1.25 µg/mL, partner 0.0625 µg/mL	0.0679
S. pneumoniae D39V [4], first compound 1.25 µg/mL, partner 0.125 µg/mL	0.0548
S. pneumoniae D39V [4], first compound 2.5 µg/mL, partner 0.005 µg/mL	0.93
S. pneumoniae D39V [4], first compound 2.5 µg/mL, partner 0.01 µg/mL	0.983
S. pneumoniae D39V [4], first compound 2.5 µg/mL, partner 0.02 µg/mL	0.903
S. pneumoniae D39V [4], first compound 2.5 µg/mL, partner 0.0312 µg/mL	0.12
S. pneumoniae D39V [4], first compound 2.5 µg/mL, partner 0.0625 µg/mL	0.0706
S. pneumoniae D39V [4], first compound 2.5 µg/mL, partner 0.125 µg/mL	0.0382
S. pneumoniae D39V [4], first compound 5 µg/mL, partner 0.005 µg/mL	0.808
S. pneumoniae D39V [4], first compound 5 µg/mL, partner 0.01 µg/mL	0.88
S. pneumoniae D39V [4], first compound 5 µg/mL, partner 0.02 µg/mL	0.855
S. pneumoniae D39V [4], first compound 5 µg/mL, partner 0.0312 µg/mL	0.106
S. pneumoniae D39V [4], first compound 5 µg/mL, partner 0.0625 µg/mL	0.0921
S. pneumoniae D39V [4], first compound 5 µg/mL, partner 0.125 µg/mL	0.0302

fitness, S. aureus DSM 20231 [1], one replicate
Conditions	first compound 0.781 µg/mL	first compound 1.562 µg/mL	first compound 3.124 µg/mL
partner 0.06 µg/mL	0.655	0.585	0.465
partner 0.12 µg/mL	0.46	0.403	0.247

Conditions	Bliss interaction score
B. subtilis 168 [6]	-0.0148
S. aureus DSM 20231 [5]	0.0661
S. aureus Newman [7]	-0.0851
S. pneumoniae D39V [8]	0.0534

COc1ccc(C[C@H](N)C(=O)N[C@H]2[C@@H](O)[C@H](n3cnc4c(N(C)C)ncnc43)O[C@@H]2CO)cc1 [Puromycin] + CN(N=O)C(=O)N[C@@H](C=O)[C@@H](O)[C@H](O)[C@H](O)CO [Streptozotocin]
fitness
Conditions	first compound 0.39 µg/mL	first compound 0.78 µg/mL	first compound 1 µg/mL	first compound 1.56 µg/mL	first compound 2 µg/mL	first compound 4 µg/mL
S. aureus DSM 20231 [1], partner 0.15 µg/mL	0.894	0.887	–	0.937	–	–
S. aureus DSM 20231 [1], partner 0.3 µg/mL	0.863	0.857	–	0.812	–	–
S. aureus DSM 20231 [1], partner 0.6 µg/mL	0.714	0.772	–	0.705	–	–
S. aureus Newman [3], partner 0.15 µg/mL	0.912	0.835	–	0.871	–	–
S. aureus Newman [3], partner 0.3 µg/mL	0.737	0.7	–	0.706	–	–
S. aureus Newman [3], partner 0.6 µg/mL	0.595	0.534	–	0.559	–	–
S. pneumoniae D39V [4], partner 1.2 µg/mL	–	–	0.913	–	0.942	0.8
S. pneumoniae D39V [4], partner 2.4 µg/mL	–	–	0.943	–	0.935	0.806
S. pneumoniae D39V [4], partner 4.8 µg/mL	–	–	0.969	–	0.926	0.749

fitness, one replicate
Conditions	partner 0.15 µg/mL	partner 0.3 µg/mL	partner 0.6 µg/mL
B. subtilis 168 [2], first compound 0.39 µg/mL	0.999	0.978	≥ 1
B. subtilis 168 [2], first compound 0.78 µg/mL	≥ 1	≥ 1	0.981
B. subtilis 168 [2], first compound 1.56 µg/mL	≥ 1	0.925	0.938
S. aureus DSM 20231 [1], first compound 3.12 µg/mL	0.907	0.853	0.806
S. aureus DSM 20231 [1], first compound 6.24 µg/mL	0.706	0.6	0.549

Conditions	Bliss interaction score
B. subtilis 168 [6]	0.0705
S. aureus DSM 20231 [5]	0.0762
S. aureus Newman [7]	0.0523
S. pneumoniae D39V [8]	0.0919

C[C@@H]1O[C@@H]1P(=O)(O)O [Fosfomycin] + COc1ccc(C[C@H](N)C(=O)N[C@H]2[C@@H](O)[C@H](n3cnc4c(N(C)C)ncnc43)O[C@@H]2CO)cc1 [Puromycin]
fitness
Conditions	partner 0.39 µg/mL	partner 0.78 µg/mL	partner 1 µg/mL	partner 1.56 µg/mL	partner 2 µg/mL
B. subtilis 168 [2], first compound 1.562 µg/mL	0.694	0.712	–	0.672	–
B. subtilis 168 [2], first compound 3.124 µg/mL	0.65	0.562	–	0.583	–
B. subtilis 168 [2], first compound 6.248 µg/mL	0.407	0.354	–	0.378	–
S. aureus DSM 20231 [1], first compound 0.781 µg/mL	0.799	0.776	–	0.829	–
S. aureus DSM 20231 [1], first compound 1.562 µg/mL	0.631	0.662	–	0.632	–
S. aureus DSM 20231 [1], first compound 3.124 µg/mL	0.491	0.541	–	0.514	–
S. aureus Newman [3], first compound 0.781 µg/mL	0.55	0.579	–	0.612	–
S. aureus Newman [3], first compound 1.562 µg/mL	0.463	0.495	–	0.516	–
S. aureus Newman [3], first compound 3.124 µg/mL	0.134	0.149	–	0.108	–
S. pneumoniae D39V [4], first compound 1.25 µg/mL	–	–	0.974	–	0.916
S. pneumoniae D39V [4], first compound 2.5 µg/mL	–	–	0.982	–	0.89
S. pneumoniae D39V [4], first compound 5 µg/mL	–	–	0.902	–	0.898

fitness, S. aureus DSM 20231 [1], one replicate
Conditions	first compound 0.781 µg/mL	first compound 1.562 µg/mL	first compound 3.124 µg/mL
partner 3.12 µg/mL	0.828	0.733	0.611
partner 6.24 µg/mL	0.707	0.488	0.329

Conditions	Bliss interaction score
B. subtilis 168 [6]	0.0393
S. aureus DSM 20231 [5]	0.047
S. aureus Newman [7]	-0.0684
S. pneumoniae D39V [8]	0.116
